Assays:
appetite = appetite suppression after oral consumption by a subject; assay type: in vivo; details: consumed orally by a subject; 'results have shown'; listed as Moringine
Protocol: Generally speaking, most parts of the Moringa Oleifera tree are edible, with the leaves and seeds often being associated with most of the above-mentioned nutritional and health benefits.
However, the medium lethal dose (LD50) of benzylamine in subjects is understood to be about 600 milligrams (mg) per kilogram (kg) (i.e., 600 mg/kg). […] However, in accordance with the novel appetite suppression compositions and methods described herein, an effective amount of benzylamine that is far below the LD50 can be orally administered to adult humans for appetite suppression.

[1] = 'thought to be' / 'believed to be'; cited from earlier work
[2] = in subjects; 'understood to be'; cited from earlier work

**Q.** With `NCc1ccccc1` [benzylamine] as the molecule, how does the appetite suppression (appetite) read?
**A.** can suppress a subject's appetite

**Q.** What about the in vivo half-life [1] of the same molecule?
**A.** 15 to 30 min

**Q.** What about the “medium lethal dose (LD50)” value [2] of the same molecule?
**A.** about 600 mg/kg
